Laboratory results from the supplement of paper PMC11061612.

Legend:
[1] = compound: C[C@@H](Nc1cc(F)cc(F)c1)c1cc(C(=O)N(C)C)cc2c(=O)cc(N3CCOCC3)oc12 [AZD8186]; details: max 10 µM
Summary of the method: (§1)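 After 24 hours at 37°C and 5% CO2 in 1536-well plates holding 7.5 μl of DMEM/F12 or RPMI with 10% FBS, cancer cell lines were dosed for 72 hours, with final DMSO typically 0.2%. Viability came from CellTiter-Glo 2.0 luminescence, scaled between the means of blank wells and DMSO wells. A non-linear mixed effects model fitted a two-parameter logistic curve to each dose response to give the single-agent IC50.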

[2] = compound: CC(=O)O[C@H]1C(=O)[C@@]2(C)[C@H]([C@H](OC(=O)c3ccccc3)[C@]3(O)C[C@H](OC(=O)[C@H](O)[C@@H](NC(=O)c4ccccc4)c4ccccc4)C(C)=C1C3(C)C)[C@]1(OC(C)=O)CO[C@@H]1C[C@@H]2O [Paclitaxel]; details: max 3 µM
Summary of the method: as §1

[3] = compound: C1CN(CCC1(C(=O)N[C@@H](CCO)C2=CC=C(C=C2)Cl)N)C3=NC=NC4=C3C=CN4 [AZD5363]; details: max 10 µM
Summary of the method: as §1

[4] = compound: C[C@@H]1COCCN1C2=NC(=NC(=C2)C3(CC3)[S@](=N)(=O)C)C4=C5C=CNC5=NC=C4 [AZD6738]; details: max 10 µM
Summary of the method: as §1

[5] = compound: O=c1[nH]cc(F)c(=O)[nH]1 [5-Fluorouracil]; details: max 20 µM
Summary of the method: as §1

[6] = compound: N#Cc1cnc(Nc2cc(NC[C@H]3CNCCO3)c(C(F)(F)F)cn2)cn1 [SRA737]; details: max 10 µM
Summary of the method: as §1

[7] = compound: COc1cc2ncnc(Nc3ccc(F)c(Cl)c3)c2cc1OCCCN1CCOCC1 [Gefitinib]; details: max 10 µM
Summary of the method: as §1

[8] = compound: Cn1cnc2c(F)c(Nc3ccc(Br)cc3Cl)c(C(=O)NOCCO)cc21 [Selumetinib]; details: max 10 µM
Summary of the method: as §1

[9] = compound: COc1cc([C@@H]2c3cc4c(cc3[C@@H](O[C@@H]3O[C@@H]5CO[C@@H](C)O[C@H]5[C@H](O)[C@H]3O)[C@H]3COC(=O)[C@H]23)OCO4)cc(OC)c1O [Etoposide]; details: max 10 µM
Summary of the method: as §1

[10] = compound: COc1cccc2c1C(=O)c1c(O)c3c(c(O)c1C2=O)C[C@@](O)(C(=O)CO)C[C@@H]3O[C@H]1C[C@H](N)[C@H](O)[C@H](C)O1 [Doxorubicin]; details: max 1 µM
Summary of the method: as §1

[11] = compound: C[C@@H](Oc1cc(-c2cnn(C3CCNCC3)c2)cnc1N)c1c(Cl)ccc(F)c1Cl [Crizotinib]; details: max 10 µM
Summary of the method: as §1

[12] = compound: C[C@@H](c1ccc2nccn2c1)n1nnc2ncc(-c3cnn(C)c3)nc21 [Savolitinib]; details: max 1 µM
Summary of the method: as §1

[13] = compound: Nc1ccn([C@@H]2O[C@H](CO)[C@@H](O)C2(F)F)c(=O)n1 [Gemcitabine]; details: max 0.3 µM
Summary of the method: as §1

[14] = compound: O=C(Nc1ccc2[nH]nc(-c3ccncc3)c2c1)[C@@H]1CCN(CC(=O)N2CCN(c3ccc(-c4ncccn4)cc3)CC2)C1; details: max 5 µM
Summary of the method: as §1

[15] = compound: NC1(c2ccc(-c3nc4ccn5c(=O)[nH]nc5c4cc3-c3ccccc3)cc2)CCC1 [MK-2206]; details: max 10 µM
Summary of the method: as §1

[16] = compound: COc1cccc(OCCCN)c1-c1cc(Nc2cnc(C#N)cn2)n[nH]1 [Prexasertib]; details: max 1 µM
Summary of the method: as §1

[17] = compound: C=CCn1c(=O)c2cnc(Nc3ccc(N4CCN(C)CC4)cc3)nc2n1-c1cccc(C(C)(C)O)n1 [AZD1775]; details: max 3 µM
Summary of the method: as §1

[18] = compound: Cc1c2c(nn1C)CSCc1cc(n(C)n1)CSc1cc(c3ccccc3c1)OCCCc1c(C(=O)O)n(C)c3c-2c(Cl)ccc13 [AZD5991]; details: max 1 µM
Summary of the method: as §1

[19] = compound: CC1=C(C(=CC=C1)Cl)NC(=O)C2=CN=C(S2)NC3=CC(=NC(=N3)C)N4CCN(CC4)CCO [Dasatinib]; details: max 2 µM
Summary of the method: as §1

[20] = compound: CCc1c2c(nc3ccc(O)cc13)-c1cc3c(c(=O)n1C2)COC(=O)[C@]3(O)CC [SN-38]; details: max 0.3 µM
Summary of the method: as §1

[21] = compound: O=C(c1cc(Cc2n[nH]c(=O)c3ccccc23)ccc1F)N1CCN(C(=O)C2CC2)CC1 [Olaparib]; details: max 10 µM
Summary of the method: as §1

[22] = compound: CN(C)CCCOc1ccc(-c2ccc3ncc4c(c3c2)n(C2CCOCC2)c(=O)n4C)cn1 [AZD0156]; details: max 3 µM
Summary of the method: as §1

[23] = compound: C1CC(C1)(C(=O)[O-])C(=O)[O-].N.N.[Pt+2] [Carboplatin]; details: max 10 µM
Summary of the method: as §1

[24] = compound: CS(=O)(=O)CCNCc1ccc(-c2ccc3ncnc(Nc4ccc(OCc5cccc(F)c5)c(Cl)c4)c3c2)o1 [Lapatinib]; details: max 10 µM
Summary of the method: as §1

[25] = compound: Cc1nc(-c2cn3c(n2)-c2ccc(-c4cnn(C(C)(C)C(N)=O)c4)cc2OCC3)n(C(C)C)n1 [Taselisib]; details: max 10 µM
Summary of the method: as §1

[26] = compound: Cc1cc2ncnn2cc1Nc1ncc2c(n1)n(C1CCOCC1)c(=O)n2C [AZD7648]; details: max 10 µM
Summary of the method: as §1

[27] = compound: CC(C)n1c(=O)n(C)c2cnc3cc(F)c(-c4ccc(OCCCN5CCCCC5)nc4)cc3c21 [AZD1390]; details: max 0.3 µM
Summary of the method: as §1

[28] = compound: CC1=CN2[C@@H](C1)C=NC3=CC(=C(C=C3C2=O)OC)OCCCCCOC4=C(C=C5C(=C4)N=C[C@@H]6CC(=CN6C5=O)C)OC [SG3199]; details: max 0.001 µM
Summary of the method: as §1

[29] = compound: CC(=O)c1c(C)c2cnc(Nc3ccc(N4CCNCC4)cn3)nc2n(C2CCCC2)c1=O [Palbociclib]; details: max 10 µM
Summary of the method: as §1

[30] = compound: CN(CC[C@H](CSC1=CC=CC=C1)NC2=C(C=C(C=C2)S(=O)(=O)NC(=O)C3=CC=C(C=C3)N4CCC(CC4)[C@H](C5=CC=CC=C5C6=CC=C(C=C6)Cl)O)S(=O)(=O)C(F)(F)F)CCO [AZD4320]; details: max 1 µM
Summary of the method: as §1

[31] = compound: COc1cc(Nc2ncc3c(n2)-c2ccc(Cl)cc2C(c2c(F)cccc2OC)=NC3)ccc1C(=O)O [Alisertib]; details: max 10 µM
Summary of the method: as §1

[32] = compound: COc1nnc2ccc(N3CCC(c4ccc(OCCN5CCN(C)C(=O)[C@H]5C)cc4)CC3)nn12 [AZD5153]; details: max 1 µM
Summary of the method: as §1

[33] = compound: CC(=O)Nc1cccc(-n2c(=O)n(C3CC3)c(=O)c3c(Nc4ccc(I)cc4F)n(C)c(=O)c(C)c32)c1 [Trametinib]; details: max 1 µM
Summary of the method: as §1

[34] = compound: CC1(C)CCC(CN2CCN(c3ccc(C(=O)NS(=O)(=O)c4ccc(NCC5CCOCC5)c([N+](=O)[O-])c4)c(Oc4cnc5[nH]ccc5c4)c3)CC2)=C(c2ccc(Cl)cc2)C1 [Venetoclax]; details: max 1 µM
Summary of the method: as §1

[35] = compound: CCN(CCO)CCCOc1ccc2c(Nc3cc(CC(=O)Nc4cccc(F)c4)[nH]n3)ncnc2c1 [AZD2811]; details: max 1 µM
Summary of the method: as §1

| Cell Line | IC50, cell viability 72 h [1] | IC50, cell viability 72 h [2] | IC50, cell viability 72 h [3] | IC50, cell viability 72 h [4] | IC50, cell viability 72 h [5] | IC50, cell viability 72 h [6] | IC50, cell viability 72 h [7] | IC50, cell viability 72 h [8] | IC50, cell viability 72 h [9] | IC50, cell viability 72 h [10] | IC50, cell viability 72 h [11] | IC50, cell viability 72 h [12] | IC50, cell viability 72 h [13] | IC50, cell viability 72 h [14] | IC50, cell viability 72 h [15] | IC50, cell viability 72 h [16] | IC50, cell viability 72 h [17] | IC50, cell viability 72 h [18] | IC50, cell viability 72 h [19] | IC50, cell viability 72 h [20] | IC50, cell viability 72 h [21] | IC50, cell viability 72 h [22] | IC50, cell viability 72 h [23] | IC50, cell viability 72 h [24] | IC50, cell viability 72 h [25] | IC50, cell viability 72 h [26] | IC50, cell viability 72 h [27] | IC50, cell viability 72 h [28] | IC50, cell viability 72 h [29] | IC50, cell viability 72 h [30] | IC50, cell viability 72 h [31] | IC50, cell viability 72 h [32] | IC50, cell viability 72 h [33] | IC50, cell viability 72 h [34] | IC50, cell viability 72 h [35] |
| --- | --- | --- | --- | --- | --- | --- | --- | --- | --- | --- | --- | --- | --- | --- | --- | --- | --- | --- | --- | --- | --- | --- | --- | --- | --- | --- | --- | --- | --- | --- | --- | --- | --- | --- | --- |
| SUP-T1 (T-Lymphoblastic Leukemia) | > 10 µM | 0.0136 µM | 3.6 µM | 3.28 µM | > 20 µM | 7.67 µM | > 10 µM | > 10 µM | 0.805 µM | 0.145 µM | 2.73 µM | > 1 µM | 0.0167 µM | > 5 µM | 7.71 µM | 0.0218 µM | 0.272 µM | > 1 µM | > 2 µM | 0.00319 µM | > 10 µM | > 3 µM | > 10 µM | > 10 µM | 1.73 µM | > 10 µM | > 0.3 µM | > 0.001 µM | 2.36 µM | > 1 µM | 1.59 µM | 0.117 µM | > 1 µM | > 1 µM | > 1 µM |
| SW1116 (Colorectal Carcinoma) | > 10 µM | 2.74 µM | > 10 µM | > 10 µM | > 20 µM | > 10 µM | > 10 µM | > 10 µM | > 10 µM | > 1 µM | > 10 µM | > 1 µM | > 0.3 µM | > 5 µM | > 10 µM | 0.824 µM | > 3 µM | > 1 µM | > 2 µM | > 0.3 µM | > 10 µM | > 3 µM | > 10 µM | > 10 µM | > 10 µM | > 10 µM | > 0.3 µM | > 0.001 µM | > 10 µM | > 1 µM | > 10 µM | > 1 µM | 0.242 µM | > 1 µM | > 1 µM |
| SW1271 (Small Cell Lung Carcinoma) | > 10 µM | 0.63 µM | > 10 µM | > 10 µM | > 20 µM | > 10 µM | > 10 µM | > 10 µM | > 10 µM | > 1 µM | > 10 µM | > 1 µM | > 0.3 µM | > 5 µM | > 10 µM | 0.137 µM | 1.97 µM | > 1 µM | > 2 µM | 0.143 µM | > 10 µM | > 3 µM | > 10 µM | > 10 µM | > 10 µM | > 10 µM | > 0.3 µM | > 0.001 µM | > 10 µM | > 1 µM | > 10 µM | 0.947 µM | 0.614 µM | > 1 µM | > 1 µM |
